The target of data set [1] is Receptor tyrosine-protein kinase erbB-4 (Homo sapiens, UniProt Q15303). Put plainly: Binding affinity to ERBB4 (unknown origin) assessed as dissociation constant by KINOMEscan analysis.
The nature of data set [2]: Clearance in iv dosed Sprague-Dawley rat. The format is ADME, organism-based. The note with it: in vivo.
A short description of data set [3]: Metabolic stability in human liver microsomes assessed as intrinsic clearance. The format is ADME, Microsome. The settings on record: read-out: CLH. (Liver microsomes are a subcellular fraction often used to study metabolism.)
Data set [4] is described as follows: Metabolic stability in rat liver microsomes assessed as intrinsic clearance. The format is ADME, Microsome. The note with it: read-out: CLH.
In data set [5] the target is Tyrosine-protein kinase Blk (Homo sapiens, UniProt P51451). Kind of data set: Binding affinity to BLK (unknown origin) assessed as dissociation constant by KINOMEscan analysis.
The target in data set [6] is T1, Tyrosine-protein kinase BTK (Homo sapiens, UniProt Q06187). Kind of data set: Binding affinity to BTK (unknown origin) assessed as dissociation constant by KINOMEscan analysis.
T1 sequence (Q06187 whole entry): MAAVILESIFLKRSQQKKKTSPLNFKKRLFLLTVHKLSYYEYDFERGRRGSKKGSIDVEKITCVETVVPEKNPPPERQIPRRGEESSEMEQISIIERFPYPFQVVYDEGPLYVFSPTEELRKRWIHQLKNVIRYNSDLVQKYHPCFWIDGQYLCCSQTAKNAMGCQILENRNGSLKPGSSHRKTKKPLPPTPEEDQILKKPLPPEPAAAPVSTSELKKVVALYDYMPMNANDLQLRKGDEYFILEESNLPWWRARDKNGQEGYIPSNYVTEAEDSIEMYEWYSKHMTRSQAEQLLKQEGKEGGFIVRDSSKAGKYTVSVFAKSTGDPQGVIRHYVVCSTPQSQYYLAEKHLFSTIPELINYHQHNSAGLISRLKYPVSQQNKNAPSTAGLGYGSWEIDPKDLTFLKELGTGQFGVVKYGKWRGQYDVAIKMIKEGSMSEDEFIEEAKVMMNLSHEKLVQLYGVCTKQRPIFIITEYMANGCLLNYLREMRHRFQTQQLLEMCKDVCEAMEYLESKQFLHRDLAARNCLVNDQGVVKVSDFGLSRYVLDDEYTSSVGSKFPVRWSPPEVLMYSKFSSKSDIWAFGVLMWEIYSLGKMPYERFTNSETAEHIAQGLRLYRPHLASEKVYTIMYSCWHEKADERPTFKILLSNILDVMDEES
The target of data set [7] is Epidermal growth factor receptor (Homo sapiens, UniProt P00533). Put plainly: Binding affinity to EGFR (unknown origin) assessed as dissociation constant by KINOMEscan analysis.
Chain of Epidermal growth factor receptor (P00533 whole entry): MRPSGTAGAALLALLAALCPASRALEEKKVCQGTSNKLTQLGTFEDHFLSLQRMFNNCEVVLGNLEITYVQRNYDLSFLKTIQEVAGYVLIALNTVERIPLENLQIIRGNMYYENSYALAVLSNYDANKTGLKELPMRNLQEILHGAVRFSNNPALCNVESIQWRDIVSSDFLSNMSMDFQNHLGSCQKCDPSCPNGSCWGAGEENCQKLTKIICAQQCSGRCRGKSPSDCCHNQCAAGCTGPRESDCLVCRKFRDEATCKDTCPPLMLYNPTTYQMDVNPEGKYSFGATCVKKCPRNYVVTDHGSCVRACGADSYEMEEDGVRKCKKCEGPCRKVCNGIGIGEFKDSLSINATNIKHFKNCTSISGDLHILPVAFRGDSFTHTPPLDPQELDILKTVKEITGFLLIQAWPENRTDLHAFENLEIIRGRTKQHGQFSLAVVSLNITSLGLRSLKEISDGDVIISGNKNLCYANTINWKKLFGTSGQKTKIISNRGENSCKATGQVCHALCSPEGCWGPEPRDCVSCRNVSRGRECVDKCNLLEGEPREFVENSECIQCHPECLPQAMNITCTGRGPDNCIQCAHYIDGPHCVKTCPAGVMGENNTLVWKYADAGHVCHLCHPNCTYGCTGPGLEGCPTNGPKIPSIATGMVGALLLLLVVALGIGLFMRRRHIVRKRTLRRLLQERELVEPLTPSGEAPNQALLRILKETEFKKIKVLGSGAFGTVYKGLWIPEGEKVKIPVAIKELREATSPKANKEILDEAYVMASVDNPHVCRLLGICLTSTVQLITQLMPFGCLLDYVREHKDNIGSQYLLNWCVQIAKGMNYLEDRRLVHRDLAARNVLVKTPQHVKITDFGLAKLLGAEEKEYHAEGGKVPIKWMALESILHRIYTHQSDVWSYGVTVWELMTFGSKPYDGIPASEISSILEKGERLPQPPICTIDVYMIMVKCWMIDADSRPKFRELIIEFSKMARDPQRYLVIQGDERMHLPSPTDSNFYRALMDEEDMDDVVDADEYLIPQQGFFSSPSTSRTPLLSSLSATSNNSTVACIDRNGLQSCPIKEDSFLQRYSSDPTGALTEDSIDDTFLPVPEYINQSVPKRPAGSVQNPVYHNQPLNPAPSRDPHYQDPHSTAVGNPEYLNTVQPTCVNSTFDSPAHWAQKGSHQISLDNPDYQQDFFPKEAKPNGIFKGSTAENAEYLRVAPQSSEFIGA
The target of data set [8] is T2, Tyrosine-protein kinase ITK/TSK (Homo sapiens, UniProt Q08881).
T2 sequence (Q08881 whole entry): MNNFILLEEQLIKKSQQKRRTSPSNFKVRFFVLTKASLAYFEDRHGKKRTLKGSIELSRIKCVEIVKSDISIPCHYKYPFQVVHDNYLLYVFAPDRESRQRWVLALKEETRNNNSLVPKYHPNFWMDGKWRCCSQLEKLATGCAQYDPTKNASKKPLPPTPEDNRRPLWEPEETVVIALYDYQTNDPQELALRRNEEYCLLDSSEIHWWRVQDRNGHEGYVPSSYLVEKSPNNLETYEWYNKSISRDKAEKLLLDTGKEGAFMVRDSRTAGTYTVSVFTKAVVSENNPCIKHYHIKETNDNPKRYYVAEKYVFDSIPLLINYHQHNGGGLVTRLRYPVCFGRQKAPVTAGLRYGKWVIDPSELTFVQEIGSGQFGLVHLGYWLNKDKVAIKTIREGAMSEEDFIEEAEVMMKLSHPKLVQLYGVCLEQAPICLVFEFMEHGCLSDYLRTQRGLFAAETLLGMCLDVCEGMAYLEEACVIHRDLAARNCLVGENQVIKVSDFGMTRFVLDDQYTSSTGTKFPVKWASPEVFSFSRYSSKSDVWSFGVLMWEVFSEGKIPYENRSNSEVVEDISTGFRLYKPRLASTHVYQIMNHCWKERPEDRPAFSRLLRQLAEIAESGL
Kind of data set: Binding affinity to ITK (unknown origin) assessed as dissociation constant by KINOMEscan analysis.

The target of data set [9] is T3, Tyrosine-protein kinase JAK3 (Homo sapiens, UniProt P52333).
T3 sequence (P52333 whole entry): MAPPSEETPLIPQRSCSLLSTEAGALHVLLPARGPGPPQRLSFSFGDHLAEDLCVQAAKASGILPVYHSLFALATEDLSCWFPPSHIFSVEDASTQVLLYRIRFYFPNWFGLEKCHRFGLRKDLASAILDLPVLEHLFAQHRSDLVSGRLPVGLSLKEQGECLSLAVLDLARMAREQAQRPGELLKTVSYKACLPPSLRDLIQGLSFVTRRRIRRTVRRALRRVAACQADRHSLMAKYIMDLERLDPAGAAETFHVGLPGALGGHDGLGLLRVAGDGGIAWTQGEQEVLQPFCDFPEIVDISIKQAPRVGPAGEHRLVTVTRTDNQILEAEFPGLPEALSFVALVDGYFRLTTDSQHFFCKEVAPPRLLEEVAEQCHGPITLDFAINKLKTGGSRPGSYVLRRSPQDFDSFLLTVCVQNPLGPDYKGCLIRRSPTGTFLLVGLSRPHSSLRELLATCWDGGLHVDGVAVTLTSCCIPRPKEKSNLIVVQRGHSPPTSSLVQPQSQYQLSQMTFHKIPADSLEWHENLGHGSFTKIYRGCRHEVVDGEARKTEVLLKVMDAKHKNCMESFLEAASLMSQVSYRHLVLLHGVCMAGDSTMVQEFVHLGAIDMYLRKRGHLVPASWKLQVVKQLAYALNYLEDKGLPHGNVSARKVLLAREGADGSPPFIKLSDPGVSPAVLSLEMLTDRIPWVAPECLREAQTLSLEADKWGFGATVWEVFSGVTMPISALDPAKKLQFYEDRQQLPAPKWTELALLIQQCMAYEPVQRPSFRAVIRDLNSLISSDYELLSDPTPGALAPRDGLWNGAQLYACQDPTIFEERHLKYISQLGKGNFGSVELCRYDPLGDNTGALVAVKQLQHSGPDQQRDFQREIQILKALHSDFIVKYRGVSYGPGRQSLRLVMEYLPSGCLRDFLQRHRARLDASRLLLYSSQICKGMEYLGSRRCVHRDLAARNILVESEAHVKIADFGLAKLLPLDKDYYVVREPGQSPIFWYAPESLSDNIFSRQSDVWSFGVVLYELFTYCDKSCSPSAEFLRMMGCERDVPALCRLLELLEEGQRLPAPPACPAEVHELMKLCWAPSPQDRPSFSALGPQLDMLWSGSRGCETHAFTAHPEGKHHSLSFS
Kind of data set: Binding affinity to JAK3 (unknown origin) assessed as dissociation constant by KINOMEscan analysis.

The target in data set [10] is T1, Tyrosine-protein kinase BTK. Kind of data set: Inhibition of BTK (unknown origin) at 1 uM by KINOMEscan assay relative to control.
Another data set has as its target T4, Cytochrome P450 2B6 (Homo sapiens, UniProt P20813).
T4 sequence (P20813 whole entry): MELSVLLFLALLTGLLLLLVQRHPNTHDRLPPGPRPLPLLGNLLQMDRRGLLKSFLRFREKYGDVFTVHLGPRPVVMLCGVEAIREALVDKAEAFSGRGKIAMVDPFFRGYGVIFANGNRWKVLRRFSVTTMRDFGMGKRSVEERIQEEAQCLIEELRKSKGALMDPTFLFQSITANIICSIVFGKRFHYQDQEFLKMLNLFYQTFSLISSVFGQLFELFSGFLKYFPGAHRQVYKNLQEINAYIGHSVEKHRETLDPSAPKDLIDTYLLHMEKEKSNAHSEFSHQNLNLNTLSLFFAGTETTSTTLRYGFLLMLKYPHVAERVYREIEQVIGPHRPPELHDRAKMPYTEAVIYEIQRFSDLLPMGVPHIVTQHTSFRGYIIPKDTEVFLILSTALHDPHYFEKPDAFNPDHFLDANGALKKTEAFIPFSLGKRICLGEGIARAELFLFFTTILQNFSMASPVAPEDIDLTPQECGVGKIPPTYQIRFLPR
Put plainly: Inhibition of human CYP2B6. The format is ADME.

For a further data set, the target named is Cytochrome P450 3A4 (Homo sapiens, UniProt P08684). Put plainly: Inhibition of human CYP3A4. The format is ADME.
Chain of Cytochrome P450 3A4 (P08684 whole entry): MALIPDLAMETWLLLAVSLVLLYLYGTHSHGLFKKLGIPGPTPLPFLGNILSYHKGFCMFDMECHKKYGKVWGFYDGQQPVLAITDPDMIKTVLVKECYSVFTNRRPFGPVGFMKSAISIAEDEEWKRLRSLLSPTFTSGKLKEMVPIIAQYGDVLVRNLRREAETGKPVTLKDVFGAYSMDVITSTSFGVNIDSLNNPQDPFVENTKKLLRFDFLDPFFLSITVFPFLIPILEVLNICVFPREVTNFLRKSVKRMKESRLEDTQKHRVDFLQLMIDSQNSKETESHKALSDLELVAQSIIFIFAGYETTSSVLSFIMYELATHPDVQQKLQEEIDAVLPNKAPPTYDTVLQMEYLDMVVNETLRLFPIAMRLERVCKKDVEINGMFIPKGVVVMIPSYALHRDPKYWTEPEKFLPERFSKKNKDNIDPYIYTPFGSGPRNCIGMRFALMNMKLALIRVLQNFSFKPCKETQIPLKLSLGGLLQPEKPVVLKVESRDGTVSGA
The target of data set [11] is Voltage-gated inwardly rectifying potassium channel KCNH2 (Homo sapiens, UniProt Q12809). Put plainly: Inhibition of hERG. The format is toxicity. (In general: The hERG channel carries a current that helps repolarise heart muscle cells.)
Chain of Voltage-gated inwardly rectifying potassium channel KCNH2 (Q12809 whole entry): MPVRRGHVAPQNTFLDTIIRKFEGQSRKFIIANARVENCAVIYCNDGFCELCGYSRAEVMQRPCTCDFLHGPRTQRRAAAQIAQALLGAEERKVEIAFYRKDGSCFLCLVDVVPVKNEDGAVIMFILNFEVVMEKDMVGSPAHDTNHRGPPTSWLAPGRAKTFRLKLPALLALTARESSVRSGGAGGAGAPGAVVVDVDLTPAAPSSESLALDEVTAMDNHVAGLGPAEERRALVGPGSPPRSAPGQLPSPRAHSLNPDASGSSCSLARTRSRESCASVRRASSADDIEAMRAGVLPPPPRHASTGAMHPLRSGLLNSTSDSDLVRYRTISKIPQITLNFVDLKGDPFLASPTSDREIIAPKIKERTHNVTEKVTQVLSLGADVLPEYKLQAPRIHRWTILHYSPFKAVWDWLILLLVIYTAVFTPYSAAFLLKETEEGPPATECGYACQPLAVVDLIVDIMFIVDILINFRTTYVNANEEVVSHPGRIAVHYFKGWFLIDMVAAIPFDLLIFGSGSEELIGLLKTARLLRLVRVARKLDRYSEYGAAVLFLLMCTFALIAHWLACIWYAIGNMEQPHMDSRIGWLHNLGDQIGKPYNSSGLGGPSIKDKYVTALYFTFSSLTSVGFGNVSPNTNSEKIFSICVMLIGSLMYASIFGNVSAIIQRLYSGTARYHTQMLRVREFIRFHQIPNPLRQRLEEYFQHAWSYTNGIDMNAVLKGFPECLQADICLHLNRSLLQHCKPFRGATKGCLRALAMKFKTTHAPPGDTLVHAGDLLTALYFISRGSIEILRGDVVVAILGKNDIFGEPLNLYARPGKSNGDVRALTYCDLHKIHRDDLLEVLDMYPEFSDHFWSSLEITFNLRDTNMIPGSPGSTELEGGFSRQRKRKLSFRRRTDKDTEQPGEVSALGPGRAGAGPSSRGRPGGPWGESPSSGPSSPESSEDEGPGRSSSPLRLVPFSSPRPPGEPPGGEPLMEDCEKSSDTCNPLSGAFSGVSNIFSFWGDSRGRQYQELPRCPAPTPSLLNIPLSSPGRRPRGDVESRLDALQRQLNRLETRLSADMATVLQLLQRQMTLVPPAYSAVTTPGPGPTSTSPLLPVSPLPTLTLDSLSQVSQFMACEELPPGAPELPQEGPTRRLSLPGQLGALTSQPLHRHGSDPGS
Another data set concerns MDR1. Put plainly: Permeability across apical to basolateral side in dog MDCK-MDR1 cells. The format is ADME, cell-based, Canis lupus familiaris. The note with it: read-out: permeability.
The nature of data set [12]: Kinetic aqueous solubility of the compound at pH 6.8 by shake flask assay. The settings on record: read-out: Kinetic_solubility. The format is physicochemical.
Data set [13] in a line: Kinetic aqueous solubility of the compound at pH 1.5 by shake flask assay. The format is physicochemical. The settings on record: read-out: Kinetic_solubility.
Data set [14] is described as follows: Volume of distribution at steady state in iv dosed Sprague-Dawley rat. The format is ADME, organism-based. The note with it: in vivo, read-out: Vdss.

Structures are written as SMILES. In brackets after ≈: the same amount, converted by molar mass.

Chain of Receptor tyrosine-protein kinase erbB-4 (Q15303 whole entry): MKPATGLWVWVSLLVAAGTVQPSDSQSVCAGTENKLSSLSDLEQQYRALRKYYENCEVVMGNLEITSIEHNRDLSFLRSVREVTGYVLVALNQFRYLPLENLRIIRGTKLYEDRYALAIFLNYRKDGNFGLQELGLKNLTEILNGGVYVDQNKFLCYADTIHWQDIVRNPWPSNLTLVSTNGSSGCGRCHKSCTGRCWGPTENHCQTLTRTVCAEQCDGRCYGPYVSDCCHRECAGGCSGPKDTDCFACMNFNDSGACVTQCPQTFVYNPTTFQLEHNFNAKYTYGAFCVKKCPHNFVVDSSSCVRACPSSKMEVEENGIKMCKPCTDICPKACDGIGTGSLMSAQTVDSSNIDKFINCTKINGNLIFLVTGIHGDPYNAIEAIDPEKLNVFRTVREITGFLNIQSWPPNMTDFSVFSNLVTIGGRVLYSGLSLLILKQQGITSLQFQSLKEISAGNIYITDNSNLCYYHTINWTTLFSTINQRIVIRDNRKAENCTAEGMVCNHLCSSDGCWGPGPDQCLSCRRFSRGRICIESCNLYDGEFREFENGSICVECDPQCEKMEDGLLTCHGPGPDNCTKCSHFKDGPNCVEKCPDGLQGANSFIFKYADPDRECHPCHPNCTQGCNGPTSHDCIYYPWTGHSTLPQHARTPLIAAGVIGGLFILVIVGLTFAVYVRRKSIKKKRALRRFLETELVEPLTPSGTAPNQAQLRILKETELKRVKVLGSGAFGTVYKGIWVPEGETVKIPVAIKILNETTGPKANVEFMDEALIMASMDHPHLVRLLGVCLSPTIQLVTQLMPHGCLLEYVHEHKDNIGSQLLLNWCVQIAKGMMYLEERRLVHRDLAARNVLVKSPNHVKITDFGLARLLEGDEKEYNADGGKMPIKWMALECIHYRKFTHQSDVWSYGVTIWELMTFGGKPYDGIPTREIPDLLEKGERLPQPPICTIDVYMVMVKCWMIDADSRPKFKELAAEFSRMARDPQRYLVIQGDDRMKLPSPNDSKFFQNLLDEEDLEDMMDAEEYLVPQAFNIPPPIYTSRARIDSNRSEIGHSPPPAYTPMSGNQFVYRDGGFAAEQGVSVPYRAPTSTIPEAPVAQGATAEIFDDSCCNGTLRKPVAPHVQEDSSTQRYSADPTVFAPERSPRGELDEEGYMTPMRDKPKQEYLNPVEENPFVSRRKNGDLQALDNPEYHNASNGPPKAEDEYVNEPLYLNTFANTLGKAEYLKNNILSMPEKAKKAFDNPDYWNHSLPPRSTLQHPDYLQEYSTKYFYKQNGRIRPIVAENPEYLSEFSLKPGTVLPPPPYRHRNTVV

The Kd is the constant that tells how readily two partners part at equilibrium. A word on the clearance: it is the volume of plasma or blood freed of the substance per unit of time. For orientation: inhibition means the percentage by which the read-out fell short of the control. Low readings indicate a response near the control, high ones a response far below the control. In general, IC50 refers to the point on the concentration scale where inhibition reaches its midpoint. Higher therefore signals weaker potency in that assay. For the compound `C=CC(=O)N(C)CCOc1c(N)ncnc1-c1ccc(CN2CCN(CC(C)C)CC2=O)c(C)c1`, the dissociation constant Kd in data set [1] is 0.89 µM; in data set [5] it was 10 µM; in [6] it was 0.00091 µM; in data set [7], 30 µM; in data set [8], 30 µM; in [9], 2.9 µM. The clearance in data set [2] came out at 126 mL/min/kg. Further, the CLint scaled came to 66 mL/min/kg in data set [3] and 154 mL/min/kg in [4]. This compound displayed an inhibition in data set [10] of over 90%. In addition, the IC50 at Cytochrome P450 2B6 was over 10 µM; at Cytochrome P450 3A4, over 10 µM; in data set [11], over 60 µM. In addition, in the data set on MDR1, the Papp A→B was 0.32 ×10⁻⁶ cm/s. In addition, the solubility kinetic came out at 49 µg/mL (≈ 102 µM) in [12] and 73 µg/mL (≈ 152 µM) in [13]. The Vd in data set [14] worked out at 126 L/kg.

(Values after ChEMBL document CHEMBL5131445, “Optimization of a novel piperazinone series as potent selective peripheral covalent BTK inhibitors” (Bioorg Med Chem Lett, 2022).)
